Laboratory results reported in patent publication US5888972A, “Peptide compounds, their preparation and uses” (Fujisawa Pharmaceutical Co., Ltd., priority 1993, dated 1999).

Target: endothelin receptors
Assay: Radioligand binding assay: [^125 I]ET-1 binding in porcine kidney membrane
Details: membranes from inner medulla of porcine kidney; [^125 I]ET-1 16 pM; 60 minutes at 23° C.; read-out: Effect on specific binding of [^125 I]ET-1 in porcine kidney membrane, IC50
Experimental: Radioligand binding assay:
(a) Crude receptor membrane preparation:
Membranes as endothelin receptors were isolated from inner medulla of porcine kidney. The inner medulla of porcine kidney was placed in ice-cold buffer (0.25M sucrose, 5 mM Tris-HCl, 0.1 mM EDTA, pH 7.5). The inner medulla was homogenized in five volumes (w/v) of ice-cold buffer using a Brinkman Polytron PT-10 at a setting of 16,000 rpm for three 10-sec periods. The homogenate was centrifuged at 10,000×g for 20 minutes at 4° C. The pellet was discarded and the supernatant was centrifuged at 100,000×g for 60 minutes at 4° C. […]
To determine [^125 I]ET-1 binding to kidney, membrane suspensions prepared from kidney (10 μg of protein) were incubated by constant shaking for 60 minutes at 23° C. with [^125 I]ET-1 (range, 4-900 pM) in a total volume of 250 μl of buffer 1 that contained 0.1 mg/ml of bovine serum albumin. […] The filter disks were washed three times with 0.2 ml of ice-cold 50 mM Tris-HCl buffer (pH 7.5), and the radioactivity was counted in a gamma counter (Hewlett-Packard) with an efficiency of 71%. […] The Kd was determined by Scatchard analysis. […]

Structure (SMILES): CC(C)C[C@@H](C(=O)N[C@H](Cc1cccc2ccccc12)C(=O)N[C@@H](C(=O)O)C(C)C)N(CCN(C)Cc1cccnc1)C(=O)Cc1ccccc1Cl [Compound A]
- IC50: 0.068 µM
